Measured values published in US11993591B2, “Chromen-4-one derivatives for the treatment and prophylaxis of hepatitis B virus disease” (Hoffmann-La Roche Inc., priority 2018, dated 2024).

Experiments:
[1] = tested on: HBV cccDNA (HBeAg level) in HepDES19 cells; test: Engineered HepDES19 primary screen assay (HBeAg as surrogate marker for cccDNA); format: cell-based; conditions: Hepatitis B virus, HepDES19, 120 h
Excerpt: The assay was employed to screen for novel cccDNA inhibitors. HepDES19 is a cccDNA-producing cell line. In this cell line, HBeAg in the cell culture supernatant as surrogate marker, as HBeAg production depends on cccDNA level and activity. HepDES19 is an engineered cell line which contains a 1.1 unit length HBV genome, and pgRNA transcription from the transgene is controlled by Tetracycline (Tet). In the absence of Tet, pgRNA transcription will be induced, but HBV e antigen (HBeAg) could not be produced from this pgRNA due to very short leader sequence before the HBeAg start codon and the start codon is disrupted. Only after cccDNA is formed, the missing leader sequence and start codon mutation would be restored from the 3′-terminal redundancy of pgRNA, and then HBeAg could be synthesized. Therefore, HBeAg could be used as a surrogate marker for cccDNA (Zhou, T. et al., Antiviral Res. (2006), 72(2), 116-124; Guo, H. et al., J. Virol. (2007), 81(22), 12472-12484).
HepDES19 cells were seeded at 2×10^6 cells per T150 flask and cultured with the culture medium (Dulbecco's Modified Eagle Medium: Nutrient Mixture F-12 [DMEM-F12, Gibco Cat. 11320-82], 10% Fetal Bovine Serum [FBS, Clontech Cat. 631101], 0.1 mM Non-Essential Amino Acids Solution [NEAA, Gibco Cat. 11140-050], 50 μg/mL Penicillin-Streptomycin [PS, Invitrogen Cat. 15140-163], 500 μg/mL Geneticin [G418, Invitrogen Cat. 10131-027]) containing 3 μg/mL Tet (Sigma, Cat. 87128) for 5 days. Cells were then seeded at 4×10^6 cells per T150 in the same culture medium as described above in the absence of Tet for 8 days. Cells were then harvested and frozen at density of 2×10^6 cells per mL. For compound testing, the frozen cells were thawed and seeded into 96-well plates at a density of 6×10^4 cells per well. At 24 hours after seeding, half log serial dilutions of compounds made with Dimethyl sulfoxide (DMSO, Sigma, Cat. D2650) were further diluted with the same culture medium as described above before they were added to the cells to reach desired final compound concentrations and 1% DMSO concentration. Plates were then incubated at 37° C. for another 5 days before measurement of HBeAg level and cell viability. Intracellular HBeAg level were measured with enzyme-linked immunosorbent assay (ELISA) kit (Shanghai Kehua Diagnostic Medical Products Co., Ltd). Cell viability was assessed using Cell Counting Kit-8 (Donjindo, Cat. CK04-20). IC50 values were derived from the dose-response curve using 4 parameter logistic curve fit method.
The compounds of the present invention were tested for their capacity to inhibit extracellular HBeAg level as described herein.

[2] = tested on: HBV (extracellular HBsAg) in primary human hepatocytes; test: Cryopreserved Primary Human Hepatocytes (PHH) HBV infection assay; format: cell-based; conditions: Hepatitis B virus, Hepatocyte, 216 h; extracellular HBsAg (CLIA), HBV-infected cryopreserved PHH, 9 days post-compound treatment
Protocol: This assay is used to confirm the anti-HBV effect of the compounds in HBV PHH infection assay. Cryopreserved PHH (BioreclamationIVT, Lot YJM) was thawed at 37° C. and gently transferred into pre-warmed InVitroGRO HT medium (BioreclamationIVT, Cat. S03317).
The mixture was centrifuged at 70 relative centrifugal force (RCF) for 3 mins at RT, and the supernatant was discarded. Pre-warmed InVitroGRO CP medium (BioreclamationIVT, Cat #S03316) was added to the cell pellet to gently re-suspend cells. The cells were seeded at the density of 5.8×10^4 cells per well to collagen I coated 96-well plate (Gibco, Cat. A1142803) with the InVitroGRO CP medium. All plates were incubated at 37° C. with 5% CO2 and 85% humidity.
At 20 hours after plating, the medium was changed to PHH culture medium (Dulbecco's Modified Eagle Medium (DMEM)/F12 (1:1) (Gibco, Cat. 11320-033), 10% fetal bovine serum (Gibco Cat. 10099141), 100 U/mL penicillin, 100 μg/mL streptomycin (Gibco, Cat. 151401-122), […] (Invitrogen Cat. PHG0311L), 20 ng/mL dexamethasone (Sigma, Cat. D4902) and 250 ng/mL human recombinant insulin (Gibco, Cat. 12585-014)). And the cells were incubated at 37° C. with 5% CO2 and 85% humidity for 4 hours. The medium was then changed to pre-warmed PHH culture medium containing 4% polyethylene glycol (PEG) MW8000 (Sigma, Cat. P1458-50ML) and 1% DMSO (Sigma, Cat. D2650). 5.8×10^6 genomic equivalents of HBV were added into the medium.
At 24 hours post-infection, the cells were gently washed with PBS and refreshed with PHH culture medium supplemented with 1% DMSO, and 0.25 mg/mL Matrix gel (Corning, Cat. 356237) at 200 μL per well. All plates were immediately placed in at 37° C. CO2 incubator. 24 hours later, serial dilutions of compounds made with DMSO were further diluted with the same culture medium (PHH culture medium supplemented with 1% DMSO and 0.25 mg/mL Matrix gel as described above) before they were added to the cells to reach desired final compound concentrations and 1% DMSO concentration. The medium containing the compounds were refreshed every three days.
At 9 days post-compound treatment, extracellular HBsAg level were measured with Chemiluminescence Immuno Assay (CLIA) kit (Autobio, HBsAg Quantitative CLIA). Extracellular HBV DNA was extracted by MagNA Pure 96 system (Roche) and then determined by quantitative PCR with the following primers and probe: […]
HBsAg IC50 and HBV DNA IC50 values were derived from the dose-response curve using 4 parameter logistic curve fit method.

Row | Compound | IC50 [1] [µM] | IC50 [2] [µM]
1 | Cc1cc(Cl)ccc1NC(=O)c1oc2ccc(Cl)cc2c(=O)c1C [Example 3, 6-chloro-N-(4-chloro-2-methylphenyl)-3-methyl-4-oxo-chromene-2-carboxamide] | 0.64 | 6.47
2 | O=C(c1cc(=O)c2cccc(Cl)c2o1)N1Cc2ccc(Br)cc2C1 [Example 4, 2-(5-bromoisoindoline-2-carbonyl)-8-chloro-chromen-4-one] | 3.6 | 6.58
3 | O=C(Nc1ccc(Cl)cc1OC1CC(C(=O)O)C1)c1cc(=O)c2cccc(Cl)c2o1 (centres unmarked) [Example 7, 3-(5-chloro-2-(8-chloro-4-oxo-chromene-2-carboxamido)phenoxy)cyclobutane-1-carboxylic Acid] | 1.66 | 10
4 | O=C(c1cc(=O)c2cccc(Cl)c2o1)N1CCc2ccc(Cl)cc2C1 [Example 16, 8-Chloro-2-(7-chloro-3,4-dihydro-1H-isoquinoline-2-carbonyl)chromen-4-one] | – | 40.3
5 | Cc1cc(C(=O)O)ccc1NC(=O)c1cc(=O)c2cccc(Cl)c2o1 [Example 18, 4-(8-chloro-4-oxo-chromene-2-carboxamido)-3-methylbenzoic Acid] | – | 43
6 | Cc1cc(OCCOCC(=O)O)ccc1NC(=O)c1cc(=O)c2cccc(Cl)c2o1 [Example 19, 2-(2-(4-(8-chloro-4-oxo-chromene-2-carboxamido)-3-methylphenoxy)ethoxy)acetic Acid] | – | 31.6
7 | O=C(O)C1CC(OCCOc2ccc3c(c2)CCN(c2cc(=O)c4cccc(Cl)c4o2)C3)C1 (centres unmarked) [Example 36, 3-[2-[[2-(8-chloro-4-oxo-chromen-2-yl)-3,4-dihydro-1H-isoquinolin-6-yl]oxy]ethoxy]cyclobutanecarboxylic Acid] | – | 0.61
8 | O=C(O)C1CC(OCCOc2ccc3c(c2)CN(c2cc(=O)c4cccc(Cl)c4o2)C3)C1 (centres unmarked) [Example 37, 3-[2-[2-(8-chloro-4-oxo-chromen-2-yl)isoindolin-5-yl]oxyethoxy]cyclobutanecarboxylic Acid] | – | 1.06
9 | O=C(O)c1cccc(CN2CCN(c3cc(=O)c4cccc(Cl)c4o3)CC2)c1 [Example 38, 3-((4-(8-chloro-4-oxo-chromen-2-yl)piperazin-1-yl)methyl)benzoic Acid] | – | 38.5
10 | O=C(O)COCCOC1CC2CCC(C1)N2c1cc(=O)c2cccc(Cl)c2o1 (centres unmarked) [Example 39, 2-(2-((8-(8-chloro-4-oxo-chromen-2-yl)-8-azabicyclo[3.2.1]octan-3-yl)oxy)ethoxy)acetic Acid] | – | 38.5
11 | CC1c2ccc(OCCOC3CC(C(=O)O)C3)cc2CCN1c1cc(=O)c2cccc(Cl)c2o1 (centres unmarked) [Example 40, 3-[2-[[2-(8-chloro-4-oxo-chromen-2-yl)-1-methyl-3,4-dihydro-1H-isoquinolin-6-yl]oxy]ethoxy]cyclobutanecarboxylic Acid] | – | 34.6
